3 molecules from US20090047279A1, “(R)-N-Stereoisomers of 7,8-Saturated-4,5-Epoxy-Morphinanium Analogs” (Progenics Pharmaceuticals, Inc., priority 2006, published 2009) can be followed below.

Structures can show the parent of a compound that is named as a salt.

Test [1] concerns μ-opioid receptors. The test can be described thus: Evaluation of agonist activity, guinea pig ileum test. Particulars: for Response to the compound + Naloxone (1.0E−07 M): compound 1.0E−04 M + naloxone 1.0E−07 M. Here is the method: (§1) Agonist/antagonist activity at the μ-opioid receptor was determined using the well known guinea pig ileum test. Briefly, an a section of ileum section was placed in a stabilizing solution in a tensed state. Transducers were used to measure changes in tension upon electrical stimulation to the tissue before and after challenge with a potential agonist/antagonist Using a control, constriction inhibition, and constriction inhibition cancellation, may be measured.
(§2) The results are expressed as a percent of the control response to DAMGO (decrease in which contract amplitude)

Test [2] relates to μ-opioid receptors. Nature of the test: Evaluation of antagonist activity, guinea pig ileum test (responses to DAMGO). Here is the method:
as §1, §2

[3] abbreviates: 1.0E−08 M, control DAMGO 1.0E−07 M = 100.

For `C[N@+]1(CC2CCCC2)CC[C@]23c4c5ccc(O)c4O[C@H]2C(=O)CC[C@@]3(O)[C@H]1C5` [(R)-CPTM, (R)-17-cyclopentylmethyl-4,5α-epoxy-3,14-dihydroxy-17-methyl-6-oxomorphinanium iodide], the “Responses to increasing concentrations of the compounds” value (“Responses to increasing concentrations” for short) in the test on μ-opioid receptors [1] (1.0E−04 M) is 18% of the control response to DAMGO; with μ-opioid receptors [1] (1.0E−05 M), 0% of the control response to DAMGO; in the test with μ-opioid receptors [1] (1.0E−06 M), 0% of the control response to DAMGO; with μ-opioid receptors [1] (1.0E−07 M), 0% of the control response to DAMGO; with μ-opioid receptors [1] (setting [3]) it was 0% of the control response to DAMGO; in the test with μ-opioid receptors [1] (3.0E−05 M) it was 12% of the control response to DAMGO. The “Responses to increasing concentrations” value in the test on μ-opioid receptors [1] (3.0E−06 M), in the test on μ-opioid receptors [1] (3.0E−07 M) and in the test with μ-opioid receptors [1] (3.0E−08 M) was 0% of the control response to DAMGO throughout. Further, the “Response to the compound + Naloxone (1.0E−07 M)” value in the test with μ-opioid receptors [1] is listed as 18% of the control response to DAMGO. In addition, the “Responses to DAMGO (1.0E−07 M) in the presence of increasing concentrations of the compounds” value in the test on μ-opioid receptors [2] (1.0E−04 M) is 40% of the control response to DAMGO; in the test on μ-opioid receptors [2] (1.0E−05 M), 28% of the control response to DAMGO; with μ-opioid receptors [2] (1.0E−06 M) it was 21% of the control response to DAMGO; in the test on μ-opioid receptors [2] (1.0E−07 M), 84% of the control response to DAMGO; in the test on μ-opioid receptors [2] (1.0E−08 M), 100% of the control response to DAMGO; in the test with μ-opioid receptors [2] (3.0E−05 M), 34% of the control response to DAMGO. The figures for the “Responses to DAMGO (1.0E−07 M) in the presence of increasing concentrations of the compounds” value in the test on μ-opioid receptors [2] (3.0E−06 M), with μ-opioid receptors [2] (3.0E−07 M) and in the test with μ-opioid receptors [2] (3.0E−08 M) were −1% of the control response to DAMGO, 63% of the control response to DAMGO and 96% of the control response to DAMGO, respectively.
As to `CCCOC1C[C@@H](O)[C@@H]2Oc3c(O)ccc4c3[C@@]23CC[N+](C)(CC2CC2)[C@H](C4)[C@]13O` (stereo partly drawn) [(R)-CPM, trifluoroacetate], the “Responses to increasing concentrations” value is on record as 22% of the control response to DAMGO in the test with μ-opioid receptors [1] (1.0E−04 M); 0% of the control response to DAMGO in the test on μ-opioid receptors [1] (1.0E−05 M); 0% of the control response to DAMGO in the test on μ-opioid receptors [1] (1.0E−06 M); 0% of the control response to DAMGO in the test on μ-opioid receptors [1] (1.0E−07 M); 0% of the control response to DAMGO in the test on μ-opioid receptors [1] (setting [3]); 5% of the control response to DAMGO with μ-opioid receptors [1] (3.0E−05 M). Moreover, the “Responses to increasing concentrations” value in the test on μ-opioid receptors [1] (3.0E−06 M), in the test with μ-opioid receptors [1] (3.0E−07 M) and with μ-opioid receptors [1] (3.0E−08 M) was 0% of the control response to DAMGO in each case. The “Response to the compound + Naloxone (1.0E−07 M)” value in the test on μ-opioid receptors [1] is given as 17% of the control response to DAMGO. The “Responses to DAMGO (1.0E−07 M) in the presence of increasing concentrations of the compounds” value with μ-opioid receptors [2] (1.0E−04 M) is given as 22% of the control response to DAMGO; in the test with μ-opioid receptors [2] (1.0E−05 M), 5% of the control response to DAMGO; in the test on μ-opioid receptors [2] (1.0E−06 M) it was 32% of the control response to DAMGO; in the test on μ-opioid receptors [2] (1.0E−07 M), 90% of the control response to DAMGO; in the test with μ-opioid receptors [2] (1.0E−08 M), 100% of the control response to DAMGO; in the test on μ-opioid receptors [2] (3.0E−05 M) it was 12% of the control response to DAMGO. In addition, the “Responses to DAMGO (1.0E−07 M) in the presence of increasing concentrations of the compounds” value is listed as 11% of the control response to DAMGO with μ-opioid receptors [2] (3.0E−06 M), 69% of the control response to DAMGO with μ-opioid receptors [2] (3.0E−07 M) and 100% of the control response to DAMGO with μ-opioid receptors [2] (3.0E−08 M).
As for `C[C@@H](NC(=O)[C@@H](N)Cc1ccc(O)cc1)C(=O)NCC(=O)N(C)[C@@H](Cc1ccccc1)C(=O)NCCO` [DAMGO, reference compound], the “Responses to increasing concentrations” value was 103% of the control response to DAMGO in the test with μ-opioid receptors [1] (1.0E−06 M), 96% of the control response to DAMGO in the test on μ-opioid receptors [1] (1.0E−07 M), 57% of the control response to DAMGO in the test with μ-opioid receptors [1] (setting [3]) and 9% of the control response to DAMGO in the test on μ-opioid receptors [1] (1.0E−09 M). For the same molecule, the “Response to DAMGO + Naloxone (1.0E−07 M)” value in the test with μ-opioid receptors [1] (DAMGO after the highest concentration, + naloxone 1.0E−07 M) is 4% of the control response to DAMGO.
